The values below come from ChEMBL document CHEMBL3217449 (Medchemcomm, 2010).

Series [1] in a line: Inhibition of AKT phosphorylation at S473 in human BT20 cells after 1 hr by sandwich ELISA. Format: cell-based. The conditions noted are these: BT-20, 1 h. On the technique in general: In an ELISA, binding on a coated surface is turned into a signal by an enzyme label.
Series [2] is described as follows: Metabolic stability in human liver microsomes assessed as extraction ratio. The series is classed as ADME. The conditions noted are these: read-out: ERH.
Series [3] can be described thus: Kinetic solubility of the compound. Format: physicochemical. The conditions noted are these: read-out: Kinetic_solubility.
For series [4], the target named is Phosphatidylinositol 4,5-bisphosphate 3-kinase catalytic subunit alpha isoform (Mus musculus, UniProt P42337). The series is described as follows: Inhibition of mouse PI3K alpha expressed in insect cells coexpressing p85 subunit assessed as PI(3,4,5)P3 formation using PI(4,5)P2 as substrate by measuring displacement of TAMRA-labeled PI(3,4,5)P3 from Grip1 PH domain after 35 mins by ligand displacement fluorescence polarization assay. (In general: Fluorescence polarisation rises when a labelled molecule tumbles more slowly, as on binding a larger partner.)

Series [5] addresses Serine/threonine-protein kinase mTOR (Homo sapiens, UniProt P42345).
Series [6] is described as follows: Drug absorption in rat. Format: ADME, organism-based. The conditions noted are these: in vivo, read-out: Drug absorption.
Series [7] deals with Rattus norvegicus. The series is described as follows: Drug metabolism in iv dosed rat plasma assessed as 2-amino-8-((cis)-4-hydroxycyclohexyl)-6-(6-methoxypyridin-3-yl)-4-methylpyrido[2,3-d]pyrimidin-7(8H)-one level. The series is classed as ADME, organism-based. To be noted: in vivo.
The subject of series [8] is Mus musculus. The series is described as follows: Drug metabolism in po dosed mouse plasma assessed as 2-amino-8-((cis)-4-hydroxycyclohexyl)-6-(6-methoxypyridin-3-yl)-4-methylpyrido[2,3-d]pyrimidin-7(8H)-one level. The series is classed as ADME, organism-based. To be noted: in vivo.
For series [9], the system named is Rattus norvegicus. The series is described as follows: Drug metabolism in iv dosed rat plasma assessed as 2-amino-8-((trans)-4-hydroxycyclohexyl)-6-(6-methoxypyridin-3-yl)-4-methylpyrido[2,3-d]pyrimidin-7(8H)-one level. The series is classed as ADME, organism-based. To be noted: in vivo.
Series [10] relates to Mus musculus. The series is described as follows: Drug metabolism in po dosed mouse plasma assessed as 2-amino-8-((trans)-4-hydroxycyclohexyl)-6-(6-methoxypyridin-3-yl)-4-methylpyrido[2,3-d]pyrimidin-7(8H)-one level. The conditions noted are these: in vivo. The series is classed as ADME, organism-based.
A short description of series [11]: Inhibition of AKT phosphorylation at S473 in human SKOV3 cells after 1 hr by sandwich ELISA. The series is classed as cell-based. To be noted: SK-OV-3, 1 h.
Series [12] can be described thus: Clearance in rat at 2 mg/kg, iv and 5 mg/kg, po by LC-MS/MS analysis. The series is classed as ADME, organism-based. To be noted: in vivo.
Series [13] has as its system Rattus norvegicus. The series is described as follows: Unbound clearance in rat at 2 mg/kg, iv and 5 mg/kg, po by LC-MS/MS analysis. The series is classed as ADME, organism-based. The conditions noted are these: in vivo.
Series [14] is described as follows: Volume of distribution at steady state in rat at 2 mg/kg, iv and 5 mg/kg, po by LC-MS/MS analysis. The series is classed as ADME, organism-based. To be noted: in vivo, read-out: Vdss.
Series [15] is described as follows: Half life in rat at 2 mg/kg, iv and 5 mg/kg, po by LC-MS/MS analysis. The series is classed as ADME, organism-based. To be noted: in vivo.
Series [16] can be described thus: Unbound fraction in rat plasma at 2 mg/kg, iv and 5 mg/kg, po by LC-MS/MS analysis. Format: ADME, organism-based.

The pIC50 is the IC50 on a negative log10 scale, so that one unit is a factor of ten. Read a high pIC50 as a low IC50. The pKi is the negative decadic logarithm of the Ki, by convention in mol/L. As a reminder, the half-life is how long it takes for the measured level to halve. A lower half-life goes with fast loss. Broadly, the fraction unbound is the share of the substance not bound to proteins or other matrix. A low value points to extensive binding.

pIC50, pKi: −log10 of the molar value. Converted amounts (≈) assume the structure as drawn. Some results are limits rather than exact numbers.

Phosphatidylinositol 4,5-bisphosphate 3-kinase catalytic subunit alpha isoform, sequence (P42337 whole entry, the tested form may be a part, canonical isoform): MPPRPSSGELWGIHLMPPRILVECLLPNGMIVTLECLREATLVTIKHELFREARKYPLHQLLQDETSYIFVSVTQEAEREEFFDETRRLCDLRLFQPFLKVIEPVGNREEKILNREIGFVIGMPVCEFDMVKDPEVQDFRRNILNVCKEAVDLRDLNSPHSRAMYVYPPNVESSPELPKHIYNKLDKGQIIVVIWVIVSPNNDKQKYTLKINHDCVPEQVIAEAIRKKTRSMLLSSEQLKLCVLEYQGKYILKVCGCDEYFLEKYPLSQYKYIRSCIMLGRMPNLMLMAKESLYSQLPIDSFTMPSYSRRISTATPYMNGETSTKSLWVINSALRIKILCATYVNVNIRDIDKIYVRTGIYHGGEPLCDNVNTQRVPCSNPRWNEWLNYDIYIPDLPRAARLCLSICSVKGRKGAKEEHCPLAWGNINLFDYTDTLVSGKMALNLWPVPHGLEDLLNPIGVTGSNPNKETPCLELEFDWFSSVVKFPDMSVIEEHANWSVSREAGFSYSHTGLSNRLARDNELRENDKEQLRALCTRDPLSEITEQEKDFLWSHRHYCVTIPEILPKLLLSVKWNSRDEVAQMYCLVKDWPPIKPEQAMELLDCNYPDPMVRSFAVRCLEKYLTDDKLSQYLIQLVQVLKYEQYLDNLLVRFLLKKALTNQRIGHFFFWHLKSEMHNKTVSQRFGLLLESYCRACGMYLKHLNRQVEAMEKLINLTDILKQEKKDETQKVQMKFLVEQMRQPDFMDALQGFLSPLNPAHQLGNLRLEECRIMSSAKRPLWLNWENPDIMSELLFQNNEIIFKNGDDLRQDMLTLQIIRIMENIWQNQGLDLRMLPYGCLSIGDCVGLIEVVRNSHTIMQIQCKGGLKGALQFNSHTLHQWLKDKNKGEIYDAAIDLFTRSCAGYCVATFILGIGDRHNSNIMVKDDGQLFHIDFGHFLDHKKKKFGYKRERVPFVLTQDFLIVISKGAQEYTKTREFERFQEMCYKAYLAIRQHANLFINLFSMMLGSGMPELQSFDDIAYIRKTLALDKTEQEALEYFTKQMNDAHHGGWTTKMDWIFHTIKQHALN

Compound `CNc1nc(C)c2cc(-c3cccc(CO)c3)c(=O)n(C3CCCC3)c2n1` gave a pIC50 in [1] of 7.82. Further, the hepatic extraction ratio in series [2] amounted to 0.68. In series [3], the solubility kinetic turned out to be 65 µM (≈ 23.7 µg/mL). For the same compound, the pKi is 8.85 in [4] and 6.08 in series [5].
`COc1ccc(-c2cc3c(C)nc(N)nc3n(C3CCCC3)c2=O)cn1` had a pIC50 in series [1] of 7.80. Moreover, the hepatic extraction ratio in series [2] was under 0.25. In [3], the solubility kinetic worked out at 3.9 µM (≈ 1.37 µg/mL). For the same compound, in [6], the Fa amounted to 28%. Besides, the values for the negative logarithm of the Ki (pKi) in [4] and in [5] were 8.85 and 6.70, respectively.
Take `CNc1nc(C)c2cc(-c3ccc(OC)nc3)c(=O)n(C3CCCC3)c2n1`: the pKi is 8.96 in series [4] and 6.15 in series [5].
In series [1], `COc1ccc(-c2cc3c(C)nc(N)nc3n([C@H]3CC[C@H](O)CC3)c2=O)cn1` showed a negative logarithm of the IC50 (pIC50) of 7.92. Further, the hepatic extraction ratio in series [2] is under 0.25. Besides, the solubility kinetic in series [3] amounted to 16 µM (≈ 6.1 µg/mL). In addition, the Stability entry with Rattus norvegicus [7] and with Mus musculus [8] was “Unstable” each time. For the same compound, the values for the pKi in series [4] and in series [5] were 9.05 and 7.77, respectively.
In turn, `COc1ccc(-c2cc3c(C)nc(N)nc3n([C@H]3CC[C@@H](O)CC3)c2=O)cn1` gave a pIC50 in series [1] of 7.66. The hepatic extraction ratio in series [2] was under 0.26. The solubility kinetic in series [3] was found to be 60 µM (≈ 22.9 µg/mL). In addition, the Stability result with Rattus norvegicus [9] and in the series with Mus musculus [10] was “Unstable” each time. Also, the pKi was 8.52 in series [4] and 7.05 in [5].
Regarding `COc1ccc(-c2cc3c(C)nc(N)nc3n(C3CCOCC3)c2=O)cn1`, the hepatic extraction ratio in series [2] was under 0.26. In series [3], the solubility kinetic stood at 40 µM (≈ 14.7 µg/mL). Also, the figures for the pKi in series [4] and in [5] were 8.44 and 6.96, respectively.
`COc1ccc(-c2cc3c(C)nc(N)nc3n(C3CCOC3)c2=O)cn1` (stereo not given): the hepatic extraction ratio in series [2] is under 0.26. Besides, the solubility kinetic in series [3] was determined as 144 µM (≈ 50.9 µg/mL). Further, the negative-log Ki (pKi) is 8.18 in [4] and 6.82 in series [5].
Take `Cc1nc(N)nc2c1cc(-c1cccc(CO)c1)c(=O)n2C1CCCC1`: the pKi in series [4] was 8.92; in [5] it was 7.09.
On to `COc1ccc(-c2cc3c(C)nc(N)nc3n([C@H]3CC[C@H](OCCO)CC3)c2=O)cn1` [PF-04691502], for which the pIC50 was 7.89 in [1] and 8.13 in [11]. In addition, the solubility kinetic in [3] is 14 µM (≈ 5.96 µg/mL). Also, the clearance in series [12] turned out to be 5.2 mL/min/kg. This compound registered a CL free in the series on Rattus norvegicus [13] of 25.9 mL/min/kg. Also, the Vd in [14] came out at 1.39 L/kg. Further, the half-life in series [15] is 3.1 h. The free fraction (fraction unbound) in series [16] was found to be 0.202.
